# Legend:
# [1] = Induction of anti-CD3/CD28 antibodies-stimulated human CD4+ T cell activation at 1.11 uM assessed fold increase in CD69 expression measured by flow cytometry analysis; type: functional, T cell line
# [2] = Induction of anti-CD3/CD28 antibodies-stimulated human T cell activation at 1.11 uM assessed fold increase in TNF-alpha secretion measured by ELISA assay; type: functional, T cell line
# [3] = Induction of allogenic human T cell activation at 10 uM assessed fold increase in cell proliferation; type: functional, T cell line
# [4] = Induction of anti-CD3/CD28 antibodies-stimulated human CD4+ T cell activation at 10 uM assessed fold increase in cell proliferation measured by flow cytometry analysis; type: functional, T cell line
# [5] = Induction of activation of human CD56+ CD3- NK cells co-cultured with human K562 cells in 1:1 ratio and assessed as increase in IFN-gamma secretion at 10 uM measured by ELISA assay; type: functional, Natural killer cell
# [6] = Induction of anti-CD3 antibodies-stimulated human T cell activation at 1 uM assessed fold increase in CD25 expression measured by ELISA assay; type: functional, T cell line; also: reference of the scale not given here
# [7] = Induction of activation of human CD56+ CD3- NK cells co-cultured with human K562 cells in 1:1 ratio and assessed as increase in TNF-alpha secretion at 10 uM measured by ELISA assay; type: functional, Natural killer cell
# [8] = Induction of activation of human CD56+ CD3- NK cells co-cultured with human K562 cells in 1:1 ratio and assessed as increase in TNF-alpha secretion at 0.625 uM measured by ELISA assay; type: functional, Natural killer cell
# [9] = Induction of anti-CD3 antibodies-stimulated human exhausted T cell activation assessed fold increase in IFN-gamma secretion measured by ELISA assay; type: functional, T cell line; also: reference of the scale not given here
# [10] = Induction of anti-CD3/CD28 antibodies-stimulated human T cell activation at 4 uM assessed fold increase in CD25 expression measured by ELISA assay; type: functional, T cell line
# [11] = Induction of anti-CD3/CD28 antibodies-stimulated human CD8+ T cell activation at 10 uM assessed fold increase in cell proliferation measured by flow cytometry analysis; type: functional, T cell line
# [12] = Induction of anti-CD3/CD28 antibodies-stimulated human CD4+ T cell activation at 1.11 uM assessed fold increase in cell proliferation measured by flow cytometry analysis; type: functional, T cell line
# [13] = Induction of anti-CD3/CD28 antibodies-stimulated human T cell activation at 10 uM assessed fold increase in TNF-alpha secretion measured by ELISA assay; type: functional, T cell line
# [14] = Induction of anti-CD3 antibodies-stimulated human T cell activation at 8 uM assessed fold increase in CD25 expression measured by ELISA assay; type: functional, T cell line; also: reference of the scale not given here
# B cell = test: Induction of anti-IgM-stimulated human CD20+ B cell activation at 10 to 1000 uM assessed as increase in CD69 expression measured as mean fluorescence intensity AUC by flow cytometry analysis; type: functional, cell-based; details: dose 10-1000 µM
# [15] = Induction of anti-CD3/CD28 antibodies-stimulated human CD8+ T cell activation at 1.11 uM assessed fold increase in cell proliferation measured by flow cytometry analysis; type: functional, T cell line
# [16] = Induction of allogenic human T cell activation at 3 uM assessed fold increase in cell proliferation; type: functional, T cell line
# [17] = Induction of activation of human CD56+ CD3- NK cells co-cultured with human K562 cells in 1:1 ratio and assessed as increase in IFN-gamma secretion at 0.625 uM measured by ELISA assay; type: functional, Natural killer cell
# [18] = Induction of anti-CD3 antibodies-stimulated human T cell activation at 10 uM assessed fold increase in TNF-alpha secretion measured by ELISA assay; type: functional, T cell line; also: reference of the scale not given here
# [19] = Induction of anti-CD3/CD28 antibodies-stimulated human anergic T cell activation at 0.37 uM assessed fold increase in IFN-gamma secretion measured by ELISA assay; type: functional, T cell line
# [20] = Induction of activation of human CD56+ CD3- NK cells co-cultured with human K562 cells in 1:1 ratio and assessed as increase in TNF-alpha secretion at 2.5 uM measured by ELISA assay; type: functional, Natural killer cell
# [21] = Induction of anti-CD3/CD28 antibodies-stimulated human T cell activation at 1.11 uM assessed fold increase in GM-CSF secretion measured by ELISA assay; type: functional, T cell line
# [22] = Induction of anti-CD3/CD28 antibodies-stimulated human anergic T cell activation at 10 uM assessed fold increase in IFN-gamma secretion measured by ELISA assay; type: functional, T cell line
# [23] = Induction of anti-CD3 antibodies-stimulated human T cell activation at 1.11 uM assessed fold increase in IFN-gamma secretion measured by ELISA assay; type: functional, T cell line; also: reference of the scale not given here
# [24] = Induction of anti-CD3 antibodies-stimulated human CD8+ T cell activation at 1.11 uM assessed fold increase in CD69 expression measured by flow cytometry analysis; type: functional, T cell line; also: reference of the scale not given here
# [25] = Induction of anti-CD3 antibodies-stimulated human T cell activation at 1.11 uM assessed fold increase in TNF-alpha secretion measured by ELISA assay; type: functional, T cell line; also: reference of the scale not given here
# [26] = Induction of anti-CD3/CD28 antibodies-stimulated human T cell activation at 4 uM assessed fold increase in IL-2 secretion measured by ELISA assay; type: functional, T cell line
# [27] = Induction of activation of human CD56+ CD3- NK cells co-cultured with human K562 cells in 1:1 ratio and assessed as increase in IFN-gamma secretion at 2.5 uM measured by ELISA assay; type: functional, Natural killer cell
# [28] = Induction of anti-CD3 antibodies-stimulated human CD8+ T cell activation at 10 uM assessed fold increase in CD69 expression measured by flow cytometry analysis; type: functional, T cell line; also: reference of the scale not given here
# [29] = Induction of anti-CD3/CD28 antibodies-stimulated human T cell activation at 0.3 uM assessed fold increase in IL-2 secretion measured by ELISA assay; type: functional, T cell line
# [30] = Induction of anti-CD3 antibodies-stimulated human T cell activation at 1.11 uM assessed fold increase in GM-CSF secretion measured by ELISA assay; type: functional, T cell line; also: reference of the scale not given here
# [31] = Induction of anti-CD3/CD28 antibodies-stimulated human CD8+ T cell activation at 10 uM assessed fold increase in CD69 expression measured by flow cytometry analysis; type: functional, T cell line
# [32] = Induction of anti-CD3/CD28 antibodies-stimulated human T cell activation at 1 uM assessed fold increase in IL-2 secretion measured by ELISA assay; type: functional, T cell line
# [33] = Induction of anti-CD3/CD28 antibodies-stimulated human CD4+ T cell activation at 10 uM assessed fold increase in CD69 expression measured by flow cytometry analysis; type: functional, T cell line
# [34] = Induction of anti-CD3/CD28 antibodies-stimulated human anergic T cell activation at 1.11 uM assessed fold increase in IFN-gamma secretion measured by ELISA assay; type: functional, T cell line
# [35] = Induction of anti-CD3 antibodies-stimulated human exhausted T cell activation assessed fold increase in IL-2 secretion measured by ELISA assay; type: functional, T cell line; also: reference of the scale not given here
# [36] = Induction of anti-CD3/CD28 antibodies-stimulated human T cell activation at 1 uM assessed fold increase in CD25 expression measured by ELISA assay; type: functional, T cell line
# [37] = Induction of anti-CD3 antibodies-stimulated human CD4+ T cell activation at 1.11 uM assessed fold increase in CD69 expression measured by flow cytometry analysis; type: functional, T cell line; also: reference of the scale not given here
Structure (SMILES),fold change (FC) [1],fold change (FC) [2],fold change (FC) [3],fold change (FC) [4],fold change (FC) [5],fold change (FC) [6],fold change (FC) [7],fold change (FC) [8],fold change (FC) [9],fold change (FC) [10],fold change (FC) [11],fold change (FC) [12],fold change (FC) [13],fold change (FC) [14],AUC (B cell),fold change (FC) [15],fold change (FC) [16],fold change (FC) [17],fold change (FC) [18],fold change (FC) [19],also measured
C[C@H](Cc1nncn1C)c1cccc(N2Cc3c(ccnc3C3CC3)C2=O)c1,<=1.2,1.51,<=2,>4,2.01,0.601,2.01,1.01,>1.61,1.31,3.01,2.01,2.01,>=1.001,0.5,<=2,<=2,2.01,<=1.5,<=2.5,fold change (FC) [20]: 1.01; fold change (FC) [21]: 2.01; fold change (FC) [22]: 2.51; fold change (FC) [23]: <=2; fold change (FC) [24]: <=1.2; fold change (FC) [25]: <=1.5; fold change (FC) [26]: 1.01; fold change (FC) [27]: 1.01; fold change (FC) [28]: 1.201; fold change (FC) [29]: 1.01; fold change (FC) [30]: 1.51; fold change (FC) [31]: 1.201; fold change (FC) [32]: 1.01; fold change (FC) [33]: 1.401; fold change (FC) [34]: <=2.5; fold change (FC) [35]: <=2.5; fold change (FC) [36]: 1.01; fold change (FC) [37]: <=1.2
Cc1cc2c(c(C3CC3)n1)CN(c1cccc([C@H](C)Cc3nncn3C)c1)C2=O,<=1.2,<=1.5,<=2,>4,2.01,0.601,1.01,<=1,<=1.4,1.01,2.01,<=2,2.01,0.801,< 0.5,<=2,<=2,1.01,<=1.5,<=2.5,fold change (FC) [20]: <=1; fold change (FC) [21]: <=1.5; fold change (FC) [22]: 2.51; fold change (FC) [23]: <=2; fold change (FC) [24]: <=1.2; fold change (FC) [25]: <=1.5; fold change (FC) [26]: 2.51; fold change (FC) [27]: 1.01; fold change (FC) [28]: 1.201; fold change (FC) [29]: 1.01; fold change (FC) [30]: <=1.5; fold change (FC) [31]: 1.201; fold change (FC) [32]: 1.01; fold change (FC) [33]: 1.201; fold change (FC) [34]: <=2.5; fold change (FC) [35]: <=2.5; fold change (FC) [36]: 1.01; fold change (FC) [37]: <=1.2
C[C@H](Cc1nncn1C)c1cccc(N2Cc3c(cc(CN4CC(O)C4)cc3C(F)(F)F)C2=O)c1,<=1.2,<=1.5,2.01,3.01,2.01,>=1.001,2.01,1.01,>1.61,1.31,2.01,<=2,1.51,>=1.001,0.5,<=2,<=2,2.01,<=1.5,<=2.5,fold change (FC) [20]: 2.01; fold change (FC) [21]: <=1.5; fold change (FC) [22]: >4.01; fold change (FC) [23]: <=2; fold change (FC) [24]: <=1.2; fold change (FC) [25]: <=1.5; fold change (FC) [26]: >=7.5; fold change (FC) [27]: 1.01; fold change (FC) [28]: <=1.2; fold change (FC) [29]: 2.51; fold change (FC) [30]: <=1.5; fold change (FC) [31]: <=1.2; fold change (FC) [32]: >=7.5; fold change (FC) [33]: 1.201; fold change (FC) [34]: 2.51; fold change (FC) [35]: >3.01; fold change (FC) [36]: 1.31; fold change (FC) [37]: 1.201

# From ChEMBL document CHEMBL5050844 (2019)
